Results on eight molecules are retold here after patent publication US9693994B2, “Class IIa HDAC inhibitors for the treatment of infection” (Research Development Foundation, priority 2014, dated 2017).

Like-named read-outs stand apart in the source and are kept apart here.

The test system of assay [1] is Bone Marrow Macrophages (BMMs). Nature of the assay: Cytokine mRNA and secretion in LPS-treated bone marrow macrophages. The assay is classed as cell-based, mouse.
A further assay concerns NF-κB subunit p65. The assay can be described thus: NF-κB signalling, immunoblot and ChIP in LPS-treated BMMs. The format is cell-based, mouse. As to the method:
Bone marrow macrophage cells (BMMs) were prepared from mouse bone marrow cells as described ([…] and Porse, 2008). BMMs were plated in 150-mm plates and exposed to LPS (10 ng/ml) with or without PGE2 (100 nM) for 1 hr. ChIP assays were performed as described (Screaton et al., 2004). RNA was isolated by RNeasy kit (Qiagen).
(A western blot detects proteins with antibodies after separation by electrophoresis.)

For a further assay, the system named is HDAC4. Nature of the assay: HDAC4 dephosphorylation and localization in BMMs. The format is cell-based, mouse. To be noted: wild-type BMMs, PGE2 in combination with LPS. As to the method: Bone marrow macrophage cells (BMMs) were prepared from mouse bone marrow cells as described (Weischenfeldt and Porse, 2008).
Assay [2] can be described thus: Leptin injection in ob/ob mice: norepinephrine, cAMP and HDAC4 in adipose.
The target in another assay is histone deacetylase. To be noted: Yoshida et al., 1990; read-out: Ki, inhibitor of histone deacetylase; cited from earlier work.
A short description of assay [3]: LPS-induced sepsis: survival and circulating cytokines. To be noted: for effect on survival after LPS: wild-type/control mice. The assay is classed as in vivo, mice. As to the method: Cytokine and Metabolite Analysis: Mice were injected with LPS (30 mg/kg) with or without Rolipram (5 mg/kg for 16 hours (h) and serum was obtained through cardiac puncture. BMMs were stimulated with LPS (10 ng/ml) with or without PGE2 (100 nM) for 16 hr and supernatant was collected.
All mice were housed in colony cages with a 12 hr light/dark cycle in a temperature-controlled environment. For LPS-induced sepsis, mice were injected intraperitoneally with 30 mg/kg LPS or PBS (UT). Survival after LPS was monitored. For studies with KO mice, age-matched wild-type littermates were employed as controls.

A short description of assay [4]: Glucose and insulin tolerance testing in HFD-fed mice. Conditions: rolipram 7 days. The assay is classed as in vivo. As to the method: For HFD studies, 6-week-old mice were transferred to a 60% HFD (Research Diets, D12492) for 4 to 12 weeks as indicated. Magnetic resonance imaging scans for fat and lean mass were performed using an Echo MRI-100 instrument according to the manufacturer's instructions. For metabolic cage studies, mice were individually housed for at least 2 days. Food intake, total activity, oxygen consumption and carbon dioxide production were simultaneously measured for individually housed mice with a LabMaster system (TSE Systems). Data were collected for 2-3 days and analyzed. For glucose tolerance testing, mice were fasted for 16 h and then injected i.p. with glucose (1.5 g/kg). For insulin tolerance testing, mice were fasted 2 h and injected i.p. with insulin (Humulin; 1 U/kg). Rolipram (5 mg/kg/day) was injected i.p. for 7 days. Blood was collected from the tail vein and glucose levels were measured with a One Touch Ultra Glucometer (Johnson & Johnson).

With `CCCCC[C@H](O)/C=C/[C@H]1[C@H](O)CC(=O)[C@@H]1C/C=C\CCCC(=O)O` [PGE2, Prostaglandin E2], the “pro-inflammatory cytokine mRNA amounts and secretion” value in assay [1] (cultured BMMs exposed to LPS) was “reduced”. Moreover, the “IL10 mRNA and protein secretion” value in assay [1] (wild-type BMMs, LPS plus PGE2) is “upregulated”. Further, the “activation of P38 or JNK, phosphorylation of IκBα or p65 in response to LPS” value in the assay with NF-κB subunit p65 (BMMs, LPS plus PGE2) is “did not interfere”. In the assay on NF-κB subunit p65 (BMMs, LPS plus PGE2 compared to LPS alone), the “p65 recruitment to the TNFα and IL12β promoters” value is “reduced”. Further, the “amounts of acetylated p65 in HDAC4 MKO cells” value with NF-κB subunit p65 (HDAC4 MKO BMMs, LPS plus PGE2) is given as “did not reduce”. Besides, in the assay with NF-κB subunit p65 (wild-type BMMs, LPS plus PGE2), the “LPS-dependent increases in p65 and histone H4K5 acetylation over cytokine promoters” value is listed as “blocked”. Besides, in the assay with HDAC4, the “HDAC4 dephosphorylation at Ser246 and nuclear translocation” value is “triggered”.

Take pertussis toxin: the cytokine gene expression entry in assay [1] is on record as “lowered”.

`CN[C@@H]1C[C@H]2O[C@@](C)([C@@H]1OC)n1c3ccccc3c3c4c(c5c6ccccc6n2c5c31)C(=O)NC4` [staurosporine]: the cytokine gene expression entry in assay [1] (BMMs exposed to LPS, pre-treatment with SIK inhibitor 10 nM) was “decreased”.

Consider cholera toxin, for which, in assay [1], the cytokine gene expression result is given as “lowered”.

Regarding `CC(C)NCC(O)COc1cccc2ccccc12` (stereo not shown) [propranolol], the “leptin-induced HDAC4 de-phosphorylation in WAT” value in assay [2] (leptin plus propranolol) is on record as “propranolol-sensitive”. The “leptin-induced rise in cAMP” value in assay [2] (ob/ob mice, leptin plus β adrenergic antagonist) was “blocked”.

Usually Ki stands for a measure of affinity in units of concentration, obtained from inhibition or displacement. Consider `CC(/C=C/C(=O)NO)=C\[C@@H](C)C(=O)c1ccc(N(C)C)cc1` [Trichostatin A, (2E,4E,6R)-7-(4-(Dimethylamino)phenyl)-N-hydroxy-4,6-dimethyl-7-oxo-2,4-heptadienamide], for which the Ki at histone deacetylase was roughly 3.4 nM.

For `COc1ccc(C2CNC(=O)C2)cc1OC1CCCC1` (stereo not shown) [Rolipram], the “effect on LPS-induced cytokine release (circulating TNFα, IL12β)” value in assay [3] (C57BL/6J mice, LPS 30 mg/kg, Rolipram 5 mg/kg co-administered) is recorded as “blocked”. The “effect on survival after LPS in HDAC4 MKO mice” value in assay [3] (HDAC4 MKO littermates, LPS plus rolipram) is “modest effects”. The “effect on survival after LPS” value is listed as “blocked” in assay [3] (LPS 30 mg/kg, Rolipram 5 mg/kg co-administered) and “improved survival” in assay [3] (LPS 30 mg/kg, Rolipram 5 mg/kg co-administered, listed as rolipram). In assay [4] (HDAC4 MKO littermates on HFD), the “glucose tolerance and insulin sensitivity in HDAC4 MKO” value is reported as “not”. Moreover, the “glucose tolerance and insulin sensitivity” value in assay [4] (wild-type mice on HFD) was “improved”.

B1: leptin: hormone injected into ob/ob mice; triggers catecholamine-dependent increases in cAMP signaling (protein, UniProt P41160 22-167, looked up)
Leptin: VPIQKVQDDTKTLIKTIVTRINDISHTQSVSAKQRVTGLDFIPGLHPILSLSKMDQTLAVYQQVLTSLPSQNVLQIANDLENLRDLLHLLAFSKSCSLPQTSGLQKPESLDGVLEASLYSTEVVALSRLQGSLQDILQQLDVSPEC
B1: in assay [2] (leptin administration), the “HDAC4 de-phosphorylation in WAT” value is listed as “promoted” and the “nuclear translocation of HDAC4 in adipose resident macrophages” value is “stimulated”. Further, the “circulating concentrations of norepinephrine and cAMP content in epididymal fat pads” value in assay [2] (ob/ob mice, leptin injection) is “upregulated”.
